Some test systems named below: NCI/ADR-RES ovarian; SR leukemia; SF-539 CNS; OVCAR-5 ovarian; SK-MEL-2 melanoma; RPMI-8226 leukemia; SK-MEL-28 melanoma; HOP-62 NSCLC; SK-MEL-5 melanoma; MDA-MB-231 breast.
Common to all, as to test: NCI-60 cell line screen, 48 h

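Test compounds were applied to cells in 96-well plates for 48 hours at 5 doses. GI50: concentration for 50% inhibition of growth. TGI: concentration producing complete growth inhibition.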

In the case of `CCN1C(=O)N(c2ccccc2)C2NC(=S)N(/N=C/C=C/c3ccccc3)C21` (centres undefined), the GI50 in the assay on NCI/ADR-RES ovarian was 0.288 µM; in the assay on SR leukemia, 0.114 µM; in the assay with SF-539 CNS it was 0.246 µM; in the assay with OVCAR-5 ovarian it was 0.631 µM; with SK-MEL-2 melanoma, 0.345 µM; in the assay with RPMI-8226 leukemia it was 0.451 µM. In addition, the GI50 is 1.74 µM in the assay on SK-MEL-28 melanoma, 0.4 µM with HOP-62 NSCLC, 0.463 µM in the assay with SK-MEL-5 melanoma and 0.715 µM in the assay with MDA-MB-231 breast. Besides, the TGI with NCI/ADR-RES ovarian is above 100 µM; in the assay on SR leukemia, above 100 µM; in the assay with SF-539 CNS, 0.854 µM; in the assay with OVCAR-5 ovarian it was above 100 µM; in the assay on SK-MEL-2 melanoma, above 94.2 µM; in the assay on RPMI-8226 leukemia, above 100 µM. Besides, the TGI in the assay with SK-MEL-28 melanoma, in the assay on HOP-62 NSCLC, in the assay on SK-MEL-5 melanoma and with MDA-MB-231 breast was above 100 µM throughout.

For the compound `CCN1Cc2c(ccc(F)c2C#N)O[C@@H](C)CNC(=O)c2c(N)nn3ccc1nc23`, the GI50 was 6.03 µM in the assay on NCI/ADR-RES ovarian; 0.626 µM in the assay with SR leukemia; 3.46 µM in the assay with SF-539 CNS; 2.87 µM in the assay on OVCAR-5 ovarian; 1.72 µM in the assay on SK-MEL-2 melanoma; 1.82 µM in the assay on SK-MEL-28 melanoma. The GI50 was 2.76 µM in the assay on HOP-62 NSCLC, 3.46 µM in the assay with SK-MEL-5 melanoma and 1.32 µM in the assay on MDA-MB-231 breast. For the same compound, the TGI was 56.3 µM in the assay with NCI/ADR-RES ovarian; above 100 µM in the assay with SR leukemia; 15.8 µM in the assay with SF-539 CNS; 19.8 µM with OVCAR-5 ovarian; 5.22 µM in the assay with SK-MEL-2 melanoma; 11.5 µM in the assay on SK-MEL-28 melanoma. Also, the TGI with HOP-62 NSCLC worked out at 20.1 µM; in the assay on SK-MEL-5 melanoma, 15.2 µM; in the assay on MDA-MB-231 breast it was 4.21 µM.

Turning to `O=C1C=CC[C@H](/C=C/c2ccccc2)O1`, the GI50 was 3.12 µM with NCI/ADR-RES ovarian; 2.78 µM with SR leukemia; 0.813 µM in the assay on SF-539 CNS; 1.92 µM with OVCAR-5 ovarian; 6.57 µM with SK-MEL-2 melanoma; 0.742 µM in the assay on RPMI-8226 leukemia. Also, the GI50 in the assay on SK-MEL-28 melanoma was 2.76 µM; in the assay on HOP-62 NSCLC, 7.44 µM; in the assay on SK-MEL-5 melanoma, 3.39 µM; in the assay with MDA-MB-231 breast, 5.42 µM. In addition, the TGI was above 23.2 µM with NCI/ADR-RES ovarian; above 100 µM in the assay with SR leukemia; 8.24 µM with SF-539 CNS; 10.4 µM with OVCAR-5 ovarian; 34.2 µM with SK-MEL-2 melanoma; 15.3 µM with SK-MEL-28 melanoma. The results for the TGI with HOP-62 NSCLC, in the assay with SK-MEL-5 melanoma and in the assay with MDA-MB-231 breast were above 61.6 µM, 16.6 µM and 32.4 µM, respectively.

Regarding `O=Cc1ccccc1B(O)O`, the TGI is above 100 µM in the assay with NCI/ADR-RES ovarian; 2.08 µM in the assay on SR leukemia; above 100 µM in the assay on SF-539 CNS; above 100 µM in the assay with OVCAR-5 ovarian; above 100 µM in the assay with SK-MEL-2 melanoma; 0.0472 µM in the assay with RPMI-8226 leukemia. For the same compound, the TGI in the assay with SK-MEL-28 melanoma, in the assay on HOP-62 NSCLC and with MDA-MB-231 breast was above 100 µM each time.

Turning to `NC1=C(c2nc(-c3ccccc3)cs2)C(c2ccc(Br)cc2)c2c(c3ccccc3oc2=O)O1` (centres undefined), the GI50 in the assay with NCI/ADR-RES ovarian was above 150 mg/L; with SR leukemia it was 55.2 mg/L; in the assay with SF-539 CNS it was 104 mg/L; in the assay on OVCAR-5 ovarian, above 150 mg/L; in the assay with SK-MEL-2 melanoma it was 89 mg/L; with SK-MEL-28 melanoma, 79.9 mg/L. The GI50 in the assay on HOP-62 NSCLC was 116 mg/L; with SK-MEL-5 melanoma it was above 150 mg/L; with MDA-MB-231 breast, 39.2 mg/L. Also, the TGI with NCI/ADR-RES ovarian, with SR leukemia, in the assay with SF-539 CNS, in the assay with OVCAR-5 ovarian, in the assay with SK-MEL-2 melanoma and in the assay with SK-MEL-28 melanoma was above 150 mg/L throughout. Besides, the TGI in the assay with HOP-62 NSCLC, in the assay on SK-MEL-5 melanoma and in the assay with MDA-MB-231 breast was above 150 mg/L each time.

In the case of `O=C(Nc1ccc2[nH]c(=S)sc2c1)Nc1ccccc1F`, the GI50 with NCI/ADR-RES ovarian is 21.9 µM; in the assay with SR leukemia, 17.5 µM; in the assay on SF-539 CNS, 29.6 µM; in the assay on OVCAR-5 ovarian it was 56.4 µM; with SK-MEL-2 melanoma it was 26.7 µM; in the assay on RPMI-8226 leukemia, 18 µM. The GI50 in the assay on SK-MEL-28 melanoma is 42.2 µM; in the assay with HOP-62 NSCLC, 37.2 µM; with SK-MEL-5 melanoma it was 17.3 µM; in the assay on MDA-MB-231 breast, 23.1 µM. The TGI in the assay on NCI/ADR-RES ovarian, in the assay on SR leukemia, with SF-539 CNS, with OVCAR-5 ovarian, with SK-MEL-2 melanoma and in the assay with RPMI-8226 leukemia was above 100 µM throughout. Moreover, the TGI with SK-MEL-28 melanoma was above 100 µM; in the assay with HOP-62 NSCLC, above 100 µM; with SK-MEL-5 melanoma, 84.1 µM; with MDA-MB-231 breast, above 100 µM.

For the compound `Nc1nc(N)c2c(n1)NC(c1ccc(F)cc1)C1CCc3ccccc3C1=N2` (centres undefined), the GI50 with NCI/ADR-RES ovarian was 3.19 µM; with SR leukemia, 1.65 µM; with SF-539 CNS it was 10.5 µM; in the assay with OVCAR-5 ovarian it was 13.1 µM; with SK-MEL-2 melanoma, 5.73 µM; in the assay on RPMI-8226 leukemia it was 1.81 µM. The GI50 with SK-MEL-28 melanoma was 7.16 µM; in the assay with HOP-62 NSCLC, 6 µM; in the assay with SK-MEL-5 melanoma, 0.609 µM; with MDA-MB-231 breast, 5.8 µM. The TGI with NCI/ADR-RES ovarian came out at 11.4 µM; in the assay on SR leukemia it was 4.14 µM; in the assay on SF-539 CNS it was 22.4 µM; in the assay with OVCAR-5 ovarian it was 26.3 µM; in the assay on SK-MEL-2 melanoma, 19.6 µM; in the assay on RPMI-8226 leukemia, 5.11 µM. Also, the TGI in the assay on SK-MEL-28 melanoma is 19.7 µM; in the assay with HOP-62 NSCLC it was 19.8 µM; in the assay with SK-MEL-5 melanoma, 2.21 µM; in the assay with MDA-MB-231 breast, 19.8 µM.

Values taken from PubChem BioAssay (NCI).
